According to article PMC9282634, “High-Throughput Crystallography Reveals Boron-Containing Inhibitors of a Penicillin-Binding Protein with Di- and Tricovalent Binding Modes” (Journal of Medicinal Chemistry, 2021):
Read-outs that look alike come from different tables or passages of the source.

How the values were obtained:
[1] = molecular target: T1, PBP3 (PaPBP3) (Pseudomonas aeruginosa, UniProt G3XD46); experiment: biochemical; set-up: S2d thioester turnover with DTNB, absorbance 412 nm, residual activity after 1 h pre-incubation; details: read-out: Residual Activity by S2d Turnover (%)
T1 construct: gene ftsI; residues 50–579
T1 sequence (G3XD46 50-579): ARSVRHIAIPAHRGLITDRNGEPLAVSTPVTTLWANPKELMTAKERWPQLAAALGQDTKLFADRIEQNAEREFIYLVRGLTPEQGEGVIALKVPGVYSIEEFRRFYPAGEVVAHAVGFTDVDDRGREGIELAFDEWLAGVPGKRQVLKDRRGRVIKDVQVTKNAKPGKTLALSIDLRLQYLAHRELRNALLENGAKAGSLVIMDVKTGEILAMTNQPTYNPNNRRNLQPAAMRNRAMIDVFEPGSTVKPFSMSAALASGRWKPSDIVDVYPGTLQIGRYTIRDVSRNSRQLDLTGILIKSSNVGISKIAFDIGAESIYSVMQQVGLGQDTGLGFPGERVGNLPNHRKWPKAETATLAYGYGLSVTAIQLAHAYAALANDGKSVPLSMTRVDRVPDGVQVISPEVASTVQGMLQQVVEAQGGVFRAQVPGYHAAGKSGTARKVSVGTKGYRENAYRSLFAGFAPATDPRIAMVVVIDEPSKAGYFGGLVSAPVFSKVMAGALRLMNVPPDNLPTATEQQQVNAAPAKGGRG
Description: Residual activities were measured by the ability of a potential inhibitor to hinder hydrolysis of the substrate analogue S2d (2-((benzoyl-D-alanyl)thio)acetic acid) turnover by PaPBP3 as described for other PBPs.[4],[24],[53],[54] Assays were conducted in 50 μL in a 384-well, clear-bottom, black-walled microplate (Greiner Bio-One). PaPBP3 (400 nM) was incubated with 2 mM of each compound for 1 h at 30 °C in 100 mM sodium phosphate, pH 7, supplemented with 0.01% (v/v) triton. A solution of 5,5′-dithiobis-(2-nitrobenzoic acid) and S2d diluted in the same buffer (to give a final concentration in the assay of 1 mM for both reagents) was added to each well to initiate the reaction. The final concentration of protein was 200 nM and the final inhibitor concentration was 1 mM. A ClarioStar plate reader (BMG Labtech) was used to follow the reaction by observing the change in absorbance at 412 nm at 30 °C. […] The initial rate of S2d turnover was calculated using GraphPad prism (Prism 8 for macOS, GraphPad Software LLC) and the standard error calculated from three independent technical replicates. The rate of non-enzymatic S2d hydrolysis was subtracted from each rate to find the corrected rate. For each compound, the ratio of the corrected rate to the untreated control corrected rate was expressed as a percentage to give the residual activity. [drawing 2] Table 1 Residual Activities and Kis of Compounds Tested in the BOCILLIN FL Competition Assay for Binding to PaPBP3 and Residual Activities Measured in S2d Turnover Assays ^a a For both BOCILLIN FL FA and S2d assays, residual activities in the presence of a 1 mM inhibitor are a percentage of the activity of the untreated control. Errors are standard errors (n = 3) from independent measurements. b Residual activity measured at 100 μM due to solubility issues at 1 mM. Ki, calculated with 11 concentrations of each compound and determined using global fitting in Kintek Global Explorer.[52],[59]

[2] = molecular target: T1, PBP3 (PaPBP3); experiment: biochemical; set-up: BOCILLIN FL fluorescence anisotropy, residual PBP3 binding after 1 h pre-incubation with compound; details: read-out: Residual Activity by BOCILLIN FL FA (%)
Description: Unless otherwise stated, assays were run in triplicate using a 60 nM purified protein (see above), 30 nM BOCILLIN FL in pH 7 100 mM sodium phosphate buffer, with 0.01% Triton to reduce promiscuous ligand binding[23] and reduce binding of the protein to the plate. Assays were run in triplicate in a volume of 50 μL, in black, flat-bottom, 384-well microplates (Grenier Bio-One, Austria) at 30 °C. The change in FA was measured using a ClarioStar plate reader (BMG Labtech) with polarized filters at excitation: 482–16, emission: F: 530–4, and calculated using MARS software v3.32 (BMG Labtech) using the equation [drawing 1] where Fpara is the fluorescence intensity parallel to the excitation plane and Fperp is fluorescence intensity perpendicular to the excitation plane. Residual activities were determined by pre-incubating the test compound (1024 μM) and protein for 1 h at 30 °C before the reaction was initiated by the addition of BOCILLIN FL. The change in FA after 30 min was compared to the uninhibited control to determine the residual activity. In order to calculate Ki, the compound (at 11 concentrations: 1–1024 μM) and BOCILLIN FL were mixed and the reaction was initiated by the addition of PBP. Also included in the model were progress curves of nine concentrations of PBP (40–110 nM). Inhibition plots with meropenem and ceftazidime were done to ensure the correct parameters for BOCILLIN FL binding were used. Progress curves were analyzed with KinTek, USA, as described;[52],[69] reported errors represent the standard error. The acylation of a PBP by BOCILLIN FL (Figure S1) can be described by a simple one-step model.[52] However, unlike the previous studies, we found it was necessary to include a term (k2) to account for the deacylation of BOCILLIN FL to release a hydrolyzed product (Figure S1). The fluorescence intensity was constant throughout the reaction. Inhibitor binding was modeled as a reversible reaction to form the enzyme–inhibitor complex (Figure S1). Ki was calculated as the ratio of the off-rate koff to the on-rate kon (Figure S1). Table 1 Residual Activities and Kis of Compounds Tested in the BOCILLIN FL Competition Assay for Binding to PaPBP3 and Residual Activities Measured in S2d Turnover Assays ^a a For both BOCILLIN FL FA and S2d assays, residual activities in the presence of a 1 mM inhibitor are a percentage of the activity of the untreated control. Errors are standard errors (n = 3) from independent measurements. b Residual activity measured at 100 μM due to solubility issues at 1 mM. Ki, calculated with 11 concentrations of each compound and determined using global fitting in Kintek Global Explorer.[52],[59]

[3] = molecular target: T1, PBP3 (PaPBP3); experiment: crystal structure; BOCILLIN FL fluorescence anisotropy competition (Ki); assay type: biochemical
[4] = molecular target: T1, PBP3 (PaPBP3); experiment: biochemical; set-up: BOCILLIN FL competition fluorescence anisotropy, progress curves globally fitted in KinTek to reversible one-step model; details: BOCILLIN FL competition
Description: Unless otherwise stated, assays were run in triplicate using a 60 nM purified protein (see above), 30 nM BOCILLIN FL in pH 7 100 mM sodium phosphate buffer, with 0.01% Triton to reduce promiscuous ligand binding[23] and reduce binding of the protein to the plate. Assays were run in triplicate in a volume of 50 μL, in black, flat-bottom, 384-well microplates (Grenier Bio-One, Austria) at 30 °C. The change in FA was measured using a ClarioStar plate reader (BMG Labtech) with polarized filters at excitation: 482–16, emission: F: 530–4, and calculated using MARS software v3.32 (BMG Labtech) using the equation [drawing 1] where Fpara is the fluorescence intensity parallel to the excitation plane and Fperp is fluorescence intensity perpendicular to the excitation plane. Residual activities were determined by pre-incubating the test compound (1024 μM) and protein for 1 h at 30 °C before the reaction was initiated by the addition of BOCILLIN FL. […] Progress curves were analyzed with KinTek, USA, as described;[52],[69] reported errors represent the standard error. […] The fluorescence intensity was constant throughout the reaction. […] Ki was calculated as the ratio of the off-rate koff to the on-rate kon (Figure S1). 1–15 were screened for PaPBP3 inhibition at 1 mM using an established fluorescence anisotropy (FA) assay.[52] […]

SMILES	remaining activity at 1000 µM [1] [%]	remaining activity at 1000 µM [2] [%]	Ki [3] [µM]	Ki [4] [µM]
O=C(O)c1ccc2c(c1)B(O)OC2 [compound 3]	57.8 ± 0.6	75 ± 1		
CNC(=O)CNC(=O)c1ccc2c(c1)B(O)OC2 [compound 5]	> 90	> 90		
NC(=O)[C@@H](Cc1ccccc1)NC(=O)c1ccc2c(c1)B(O)OC2 [compound 6]	> 90	> 90		
COC(=O)[C@H](NC(=O)c1ccc2c(c1)B(O)OC2)c1ccccc1 [compound 7]	> 90	> 90		
O=C1CN(C(=O)[C@@H](Cc2ccccc2)NC(=O)c2ccc3c(c2)B(O)OC3)CCN1 [compound 11]	80.9 ± 1.3	84 ± 1		
NC(=O)[C@H](NC(=O)c1ccc2c(c1)B(O)OC2CC(=O)O)c1ccccc1 (some centres unmarked) [compound 12, 12]	19.6 ± 0.4	16 ± 6	73.9 ± 0.8	
CN1CCN(C(=O)CNC(=O)c2ccc3c(c2)B(O)OC3CC(=O)O)CC1=O (centres unmarked) [compound 13, 13]	47.5 ± 0.6	42 ± 6	172 ± 3	
O=C(O)CC1OB(O)c2ccc(OCc3ccccc3)cc21 (centres unmarked) [compound 15, 2-(5-(Benzyloxy)-1-hydroxy-1,3-dihydrobenzo[c][1,2]oxaborol-3-yl)acetic Acid]			78.1 ± 0.9	
O=C(O)C[C@@H]1CC[C@H](NC(=O)Cc2cccs2)B(O)O1 [vaborbactam]	75.8 ± 0.7	54 ± 5		201 ± 2.3
